“Also recorded” adds a separate entry of the source. Read-outs that look alike come from different tables or passages of the source.
How the values were obtained:
Format in all cases: biochemical
[1] = Online UPLC-PDA-MS-ABTS·+ scavenging (post-column derivatisation); details: online profiling of DOF extract
Procedure: Online identification of antioxidant components of DOF extract was performed using a UPLC system (Milford, MA, USA) consisting of a Waters photodiode array detector and a Waters postcolumn derivatisation system supplying fresh ABTS solution (UPLC-PDA-QDa-ABTS). […] The detection wavelengths were set at 280 and 734 nm, and the injection volume of the sample was 10 μl.
To detect radical scavengers, the UPLC system was coupled with a Waters pump, which supplied freshly prepared ABTS·+ solution into a reaction coil (15 m, 0.25 mm ID) with a flow rate of 0.2 ml/min at 37° C. Negative peaks were recorded based on a decrease of absorbance at 729 nm after the reaction of individual compounds with the ABTS·+ radical. For preliminary identification of compounds, a Waters Acquity QDa mass detector in negative ionisation mode was connected in series to PDA with the following parameters: electrospray ion source; cone voltage, 15 V; atomiser, N2; and scanning range, 100-800 m/z.

COX-2 = biological target: T1, COX-2 (Homo sapiens, UniProt P35354); experiment: Anti-COX-2 assay (COX-2 Inhibitor Screening Kit)
T1 construct: purchased Beyotime S0168
T1 sequence (P35354 18-604): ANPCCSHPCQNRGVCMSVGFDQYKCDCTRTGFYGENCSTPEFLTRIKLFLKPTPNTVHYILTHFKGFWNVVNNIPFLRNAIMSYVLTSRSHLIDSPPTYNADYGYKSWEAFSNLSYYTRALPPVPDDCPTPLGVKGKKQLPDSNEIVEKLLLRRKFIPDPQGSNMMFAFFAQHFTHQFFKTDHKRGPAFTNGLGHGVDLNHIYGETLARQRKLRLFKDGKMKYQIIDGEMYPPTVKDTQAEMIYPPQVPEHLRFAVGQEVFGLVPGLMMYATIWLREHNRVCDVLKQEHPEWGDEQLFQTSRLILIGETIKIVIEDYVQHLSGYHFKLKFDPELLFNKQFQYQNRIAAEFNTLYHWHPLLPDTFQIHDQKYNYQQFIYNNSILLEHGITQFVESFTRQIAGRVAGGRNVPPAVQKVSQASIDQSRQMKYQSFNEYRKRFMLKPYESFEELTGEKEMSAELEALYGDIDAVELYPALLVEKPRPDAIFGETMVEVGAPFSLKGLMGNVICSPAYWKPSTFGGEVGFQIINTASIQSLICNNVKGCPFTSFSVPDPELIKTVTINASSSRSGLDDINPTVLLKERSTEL
Procedure: Anti-inflammatory activity was assessed by measuring COX-2 enzymatic inhibition on the basis of a described method by using the COX-2 Inhibitor Screening Kit (Beyotime, No. S0168). Celecoxib, a COX-2 inhibitor, was used as a positive control.

DPPH· scavenging assay = experiment: DPPH· scavenging assay
[2] = FRAP total antioxidant capacity assay
Procedure: (§1) Fast colourimetric methods were slightly modified for the in vitro assessment of DPPH· scavenging, ABTS·+ decolourisation capacity, and total antioxidant capacity of FRAP. The stock solutions of derivatisation reagents were diluted as follows before measurement: DPPH was diluted with absolute ethanol until the absorbance was 0.8±0.05 at λ=517 nm. ABTS working solution was prepared with phosphate buffer (0.2 M, pH 7.4) to display absorbance of 0.8±0.05 at λ=729 nm, based on a previous study. The FRAP solution was prepared according to the instructions of the FRAP kit. Absorbances were measured using an automatic microplate reader (Molecular Group Ltd., USA), and all analyses were performed using 96-well plates. All measurements were performed in triplicate, and Trolox was used as a positive control.
For total antioxidant capacity, 180 μl of FRAP solution was mixed with 5 μl of sample solution, and the absorbance was measured after 5 min at […] with PBS as the negative control. FeSO4 solutions (0.15, 0.3, 0.6, 0.9, 1.2, and 1.5 mM) were used for the calibration curve. The FRAP value represents the corresponding concentration of FeSO4 solutions (mM FeSO4). The regression equation from the standard curve was used to calculate the equivalent concentration 1 (EC1) of each sample. EC1 is defined as the concentration of the test sample with an absorbance equivalent to that of 1.0 mmol/L of FeSO4 solution, determined by its calibration curve.

[3] = ABTS·+ decolourisation assay; details: for IC50: read-out: IC50 against the ABTS radical
Procedure: as §1
For ABTS·+ decolourisation capacity, 100 μl of ABTS working solution was mixed with 200 μl of sample solution, and the absorbance was recorded after 10 min at 729 nm. Phosphate buffer (0.2 M, pH 7.4) was used as a negative control.
DPPH· and ABTS·+ radical scavenging activities of the tested sample were both calculated using the following formula: […]
where A control and A sample represent the absorbance of the control and test samples, respectively. The IC50 was calculated graphically from the dose-inhibition curves.

Row | SMILES | ABTS radical scavenging by size of negative peaks at 734 nm (in words) [1] | COX-2 inhibition (in words) (COX-2) | antioxidant ability by DPPH (in words) (DPPH· scavenging assay) | antioxidant ability by FRAP (in words) [2] | also measured
1 | O=C(/C=C/c1ccc(O)c(O)c1)O[C@@H]1O[C@H](CO)[C@@H](O)[C@H](O)[C@H]1O [Compound 5, 1-O-caffeoyl-β-D-glucoside] | strongest ABTS radical scavengers | – | – | – | –
2 | O=c1cc(-c2ccc(O)cc2)oc2c([C@@H]3O[C@H](CO)[C@@H](O)[C@H](O)[C@H]3O)c(O)c([C@@H]3O[C@H](CO)[C@@H](O)[C@H](O)[C@H]3O)c(O)c12 [Compound 10, Vicenin-2] | strongest ABTS radical scavengers | no inhibitory effects | – | – | –
3 | O=c1cc(-c2ccc(O)c(O)c2)oc2c(C3OC(CO)C(O)C(O)C3O)c(O)c(C3OCC(O)C(O)C3O)c(O)c12 [Compound 11, Luteolin-6-C-β-D-xyloside-8-C-β-D-glucoside] | strongest ABTS radical scavengers | great COX-2 inhibition; also recorded: outstanding COX-2 inhibitory effects | great antioxidant potency | great antioxidant potency | FRAP EC1 (mM) ([2]; Table 11, mean ± SD, n = 3): 1,009.1 µM
4 | O=c1cc(-c2ccc(O)cc2)oc2c([C@@H]3O[C@H](CO)[C@@H](O)[C@H](O)[C@H]3O)c(O)c([C@@H]3OC[C@@H](O)[C@H](O)[C@H]3O)c(O)c12 [Compound 14, Vicenin-1] | – | – | – | – | IC50 [3]: 96.4 ± 2.11 µM
5 | O=c1cc(-c2ccc(O)c(O)c2)oc2c(C3OCC(O)C(O)C3O)c(O)c(C3OC(CO)C(O)C(O)C3O)c(O)c12 [Compound 15, Luteolin-6-C-β-D-glucoside-8-C-β-D-xyloside] | – | great COX-2 inhibition; also recorded: outstanding COX-2 inhibitory effects | great antioxidant potency | great antioxidant potency | FRAP EC1 (mM) ([2]; Table 11, mean ± SD, n = 3): 1,100.3 µM
6 | O=c1c(OC2OC(CO)C(O)C(O)C2OC2OC(CO)C(O)C(O)C2O)c(-c2ccc(O)c(O)c2)oc2cc(O)cc(O)c12 (centres unmarked) [Compound 16, Quercetin-3-O-sophoroside] | strongest ABTS radical scavengers | great COX-2 inhibition; also recorded: outstanding COX-2 inhibitory effects | great antioxidant potency | great antioxidant potency | IC50 [3]: 6.63 ± 0.41 µM; FRAP EC1 ([2]; Table 11, mean ± SD, n = 3): 950 µM
7 | O=c1cc(-c2ccc(O)cc2)oc2c([C@@H]3OC[C@H](O)[C@H](O)[C@H]3O)c(O)c([C@@H]3O[C@H](CO)[C@@H](O)[C@H](O)[C@H]3O)c(O)c12 [Compound 17, Schaftoside] | – | no inhibitory effects | – | – | –
8 | O=c1cc(-c2ccc(O)c(O)c2)oc2cc(O)c(C3OC(CO)C(O)C(O)C3O)c(O)c12 [Compound 18, Luteolin-6-C-β-D-glucoside] | – | great COX-2 inhibition; also recorded: outstanding COX-2 inhibitory effects | great antioxidant potency | great antioxidant potency | FRAP EC1 ([2]; Table 11, mean ± SD, n = 3): 507 µM
9 | O=c1cc(-c2ccc(O)cc2)oc2c([C@@H]3OC[C@@H](O)[C@H](O)[C@H]3O)c(O)c([C@@H]3O[C@H](CO)[C@@H](O)[C@H](O)[C@H]3O)c(O)c12 [Compound 19, Vicenin-3] | – | no inhibitory effects | – | – | –
10 | O=c1cc(-c2ccc(O)cc2)oc2c([C@H]3OC[C@H](O)[C@H](O)[C@H]3O)c(O)c([C@@H]3O[C@H](CO)[C@@H](O)[C@H](O)[C@H]3O)c(O)c12 [Compound 21, Neoschaftoside] | – | – | great antioxidant potency | great antioxidant potency | –
11 | O=c1c(O[C@@H]2O[C@H](CO)[C@@H](O)[C@H](O)[C@H]2O)c(-c2ccc(O)c(O)c2)oc2cc(O)cc(O)c12 [Compound 25, Isoquercitrin] | strongest ABTS radical scavengers | great COX-2 inhibition; also recorded: outstanding COX-2 inhibitory effects | great antioxidant potency | great antioxidant potency | antioxidant ability by DPPH (in words) (DPPH· scavenging assay; listed as isoquercitrin): selective and significant antioxidant abilities; FRAP EC1 ([2]; Table 11, mean ± SD, n = 3): 520 µM; antioxidant ability by FRAP (in words) ([2]; listed as isoquercitrin): selective and significant antioxidant abilities; COX-2 inhibition (in words) (COX-2; listed as isoquercitrin): potent COX-2 inhibitory capacity
12 | O=c1cc(-c2ccc(O)cc2)oc2c([C@@H]3OC[C@@H](O)[C@H](O)[C@H]3O)c(O)c([C@@H]3OC[C@H](O)[C@H](O)[C@H]3O)c(O)c12 [Compound 26, Apigenin-6-C-α-L-arabinoside-8-C-β-D-xyloside] | – | no inhibitory effects | – | – | FRAP EC1 (mM) ([2]; Table 11, mean ± SD, n = 3): >5,000 µM
13 | O=C(O)CC(=O)OCC1OC(Oc2c(-c3ccc(O)c(O)c3)oc3cc(O)cc(O)c3c2=O)C(O)C(O)C1O (centres unmarked) [Compound 27, Quercetin 3-O-(6″-malonyl-glucoside)] | strongest ABTS radical scavengers | great COX-2 inhibition; also recorded: outstanding COX-2 inhibitory effects | great antioxidant potency | great antioxidant potency | FRAP EC1 ([2]; Table 11, mean ± SD, n = 3): 827 µM
14 | CC1OC(OCC2OC(Oc3c(-c4ccc(O)cc4)oc4cc(O)cc(O)c4c3=O)C(O)C(O)C2O)C(O)C(O)C1O (centres unmarked) [Compound 28, Kaempferol-3-O-rutinoside] | – | no inhibitory effects | – | – | –
15 | O=c1c(O[C@@H]2O[C@H](CO)[C@@H](O)[C@H](O)[C@H]2O)c(-c2ccc(O)cc2)oc2cc(O)cc(O)c12 [Compound 31, Astragalin] | – | no inhibitory effects | – | – | –
16 | COc1cc(-c2oc3cc(O)cc(O)c3c(=O)c2O[C@@H]2O[C@H](CO)[C@@H](O)[C@H](O)[C@H]2O)ccc1O [Compound 32, Isorhamnetin-3-O-glucoside] | – | – | – | – | IC50 (DPPH· scavenging assay): 2370 µM; EC1 of FRAP [2]: 2,757.3±103.8 μM; IC50 (COX-2): 535 ± 150 µM
17 | Cc1c(C)c2c(c(C)c1O)CCC(C)(C(=O)O)O2 (centres unmarked) [Trolox, 6-hydroxyl-2,5,7,8-tetra-methylchroman-2-carboxylic acid, reference compound] | – | – | – | – | ABTS IC50 ([3]; text b269): 27.68 ± 1.04 mg/L; FRAP EC1 ([2]; Table 11, mean ± SD, n = 3): 560 µM; FRAP EC1 ([2]; concentration equivalent to 1.0 mmol/L FeSO4, text b269): 55.35 ± 5.22 µg/mL

From US20260232750A1, “COMPOSITION AND METHOD FOR INHIBITING ADVANCED GLYCATION END PRODUCTS” (ACCESS BUSINESS GROUP INTERNATIONAL LLC, priority 2022, published 2026)
